Experimental data: ChEMBL document CHEMBL2385023, “Negative allosteric modulators of metabotropic glutamate receptor subtype” (ACS Med Chem Lett, 2013)

Columns and labels:
Mus musculus = assay: Anxiolytic activity in ip dosed Harlan CD1 mouse assessed as inhibition of marble burying activity administered 15 to 30 mins prior to test; assay type: functional
[1] = Oral bioavailability in rat; assay type: ADME, organism-based; conditions: in vivo
[2] = Oral bioavailability in cynomolgus monkey; assay type: ADME, organism-based, Macaca fascicularis; conditions: in vivo
[3] = Ratio of drug level in brain to plasma in mouse at 10 mg/kg, po; assay type: ADME, organism-based; design: dose 10 mg/kg, route oral; conditions: read-out: BPR
[4] = Plasma protein binding in human; assay type: ADME, cell-free; conditions: read-out: PPB (converted)

bioavailability [1] [%]	bioavailability [2] [%]	Kp [3]	fraction unbound [4]	Structure (SMILES)	ED (Mus musculus) [mg/kg]
–	–	–	–	Cc1cc(Oc2cnc(C)nc2)cc(C(=O)Nc2ccc(F)cn2)n1	10
39	–	–	–	CCc1cccc(NC(=O)c2cc(Oc3cncnc3)cc(C)n2)n1	10
30	42	5.9	0.086	Cc1cc(Oc2cncnc2)cc(C(=O)Nc2ccc(F)cn2)n1	10
67	25	4.7	–	Cc1cc(Oc2cncc(F)c2)cc(C(=O)Nc2ccc(F)cn2)n1	30
